Assay results reported in patent publication US11819572B2, “Treatment of pain by administration of sustained-release liposomal anesthetic compositions” (Pacira Pharmaceuticals, Inc., priority 2020, dated 2023).

Key:
rats = experiment: Intravenous administration to rats of bupivacaine and EXPAREL: tolerability; format: in vivo
Experimental: The following is a summary of the results from two pre-clinical studies that compared the tolerability and PK profiles for non-liposomal bupivacaine vs EXPAREL®
Improved toleration was attributed to the reduced peak plasma levels of bupivacaine observed in animals following administration of EXPAREL® vs non-liposomal bupivacaine. 1) Intravenous (IV) Administration to Rats of (a) Bupivacaine and (b) EXPAREL®:
Free bupivacaine was administered to three rats in an amount equivalent to 1.0, 1.75 and 2.5 mg/kg of bupivacaine. Two rats died, corresponding to a 67% mortality rate. In a separate experiment, EXPAREL® was administered to rats in an amount equivalent to 2.5, 5.0 and 7.5 mg/kg of bupivacaine. […] The NOELs (no observable effect levels) determined for EXPAREL® and for free bupivacaine in this study were 7.5 mg/kg and 1.0 mg/kg, respectively.

Beagle dogs = experiment: Intravenous administration to Beagle dogs of bupivacaine and EXPAREL: adverse events and cardiology; format: in vivo, Beagle dog
Experimental: a) Intravenous (IV) Administration to Beagle Dogs of (a) Bupivacaine and (b) EXPAREL®:
Free bupivacaine was administered to dogs in an amount equivalent to 0.75 mg/kg and to 1.5 mg/kg of bupivacaine. Three dogs (one that was administered 0.75 mg/kg, and two that were administered 1.5 mg/kg) experienced side-effects such as convulsions, tremors, increased respiration and/or emesis (Table 1). In a separate experiment, EXPAREL® was administered to dogs in the same amount as above. […] A 3-fold higher dose of EXPAREL® (that is, a dose equivalent to 4.5 mg/kg of bupivacaine) was then administered to the dogs.

in vivo = settings: beagle, dog, iv, 1.5 mg/kg
Experimental: Without wishing to be held to any particular mechanism or theory, it is believed that the observed toxicity differences above are attributable to the differences in plasma bupivacaine levels of the groups of dogs receiving free bupivacaine and EXPAREL®, respectively. […] Similarly, the Cmax for dogs receiving the same dose as in (i)—i.e., (1.5 mg/kg) of EXPAREL®—was clearly lower than that of dogs receiving free bupivacaine. […] The difference in exposure between the two groups may also be seen by comparing the respective values of Cmax/dose. […] In contrast with the above differences in Cmax in the two groups, the total AUC/dose was similar in dogs receiving EXPAREL® as compared to dogs receiving free bupivacaine. In particular, the values for female dogs were 751 (ng-hr/mL)/(mg/kg) for EXPAREL® (1.5 mg/kg dose), 674 (ng-hr/mL)/(mg/kg) for EXPAREL® (4.5 mg/kg dose), and 738 (ng-hr/mL)/(mg/kg)) for free bupivacaine. The values for male dogs were 1510 (ng-hr/mL)/(mg/kg) for EXPAREL® (1.5 mg/kg dose), 826 (ng-hr/mL)/(mg/kg) for EXPAREL® (4.5 mg/kg dose), and 879 (ng-hr/mL)/(mg/kg) for free bupivacaine.
(§1) The study was conducted in a manner analogous to the intravenous administration study described in a) above.

[1] = Bupivacaine plasma pharmacokinetics after intra-arterial (IA) administration in Beagle dogs; format: in vivo; settings: Beagle dog plasma bupivacaine, 0.1 mg/kg, Day 1, mean
Experimental: b) Intra-Arterial Administration to Beagle Dogs of (a) Bupivacaine and (b) EXPAREL®:
as §1

[2] = three rats, 1.0, 1.75 and 2.5 mg/kg of bupivacaine
[3] = Beagle dogs, dose 0.75, 1.5 mg/kg (Group 2)

Compound: CCCCN1CCCCC1C(=O)Nc1c(C)cccc1C (stereo not drawn) [free bupivacaine, bupivacaine]
- NOEL (no observable effect level) (rats; rats): 1.0 mg/kg
- Mortality rate (rats; [2]): 67%
- Rats that died (rats; [2]): Two rats died
- Dogs that experienced side-effects such as convulsions, tremors, increased respiration and/or emesis (Beagle dogs; 0.75 mg/kg): one
- Dogs that experienced side-effects such as convulsions, tremors, increased respiration and/or emesis (Beagle dogs; 0.75 mg/kg and 1.5 mg/kg of bupivacaine (all)): Three dogs
- Dogs that experienced side-effects such as convulsions, tremors, increased respiration and/or emesis (Beagle dogs; 1.5 mg/kg): two
- Cardiology: Change in heart rate (BMP, avg) (Beagle dogs; [3]): 56 ± 31 BMP
- No. of animals exhibiting clinical symptoms: Increased respiration (Beagle dogs; [3]): 2
- No. of animals exhibiting clinical symptoms: Sustained convulsions (Beagle dogs; [3]): 1
- No. of animals exhibiting clinical symptoms: Tremors (Beagle dogs; [3]): 1
- No. of animals exhibiting clinical symptoms: Unsustained convulsions (Beagle dogs; [3]): 0
- No. of animals exhibiting clinical symptoms: Vomiting (Beagle dogs; [3]): 2
- AUC(0-t) (in vivo; female): 1110 ng·h/mL
- AUC(0 − t)/D (in vivo; female): 738 ng·h/mL/mg/kg
- Cmax (in vivo; female): 2050 ng/mL
- Cmax/D (in vivo; female): 1370 ng·kg/mL/mg
- Cmax/dose (in vivo; female): 1.37
- half-life (in vivo; female): 28.4 min
- total AUC/dose (in vivo; female): 738 (ng-hr/mL)/(mg/kg)
- AUC(0-t) (in vivo; male): 1320 ng·h/mL
- AUC(0 − t)/D (in vivo; male): 879 ng·h/mL/mg/kg
- Cmax (in vivo; male): 2750 ng/mL
- Cmax/D (in vivo; male): 1830 ng·kg/mL/mg
- Cmax/dose (in vivo; male): 1.83
- half-life (in vivo; male): 31.2 min
- total AUC/dose (in vivo; male): 879 (ng-hr/mL)/(mg/kg)
- AUC(0-t) ([1]; Female): 62.6 ng·h/mL
- AUC(0 − t)/D ([1]; Female): 626 ng·h/mL/mg/kg
- Cmax ([1]; Female): 187 ng/mL
- Cmax/D ([1]; Female): 1870 ng·kg/mL/mg
- half-life ([1]; Female): 16 min
- AUC(0-t) ([1]; Male): 71.1 ng·h/mL
- AUC(0 − t)/D ([1]; Male): 711 ng·h/mL/mg/kg
- Cmax ([1]; Male): 205 ng/mL
- Cmax/D ([1]; Male): 2050 ng·kg/mL/mg
- half-life ([1]; Male): 15.8 min
